A value given as a limit tells only on which side of the number the result lay.

Sequence of PD-1/PD-L1 (Q9NZQ7 19-238): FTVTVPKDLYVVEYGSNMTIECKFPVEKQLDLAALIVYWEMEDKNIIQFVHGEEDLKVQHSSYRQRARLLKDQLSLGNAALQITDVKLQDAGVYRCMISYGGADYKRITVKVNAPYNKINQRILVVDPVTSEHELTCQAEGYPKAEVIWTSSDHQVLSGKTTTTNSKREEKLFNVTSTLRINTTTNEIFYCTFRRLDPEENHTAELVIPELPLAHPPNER

This assay has as its target PD-1/PD-L1 (Homo sapiens (Human), UniProt Q9NZQ7). The assay is described as follows: PD-1/PD-L1 Homogeneous Time-Resolved Fluorescence (HTRF) Binding Assay. The following applies: recombinant human PD-1 (3 nM) and PD-L1 (10 nM), 25° C., PBS pH 7.4. On the procedure:
Example A. PD-1/PD-L1 Homogeneous Time-Resolved Fluorescence (HTRF) Binding Assay
The assays were conducted in a standard black 384-well polystyrene plate with a final volume of 20 μL. Inhibitors were first serially diluted in DMSO and then added to the plate wells before the addition of other reaction components. The final concentration of DMSO in the assay was 1%. The assays were carried out at 25° C. in the PBS buffer (pH 7.4) with 0.05% Tween-20 and 0.1% BSA. Recombinant human PD-L1 protein (19-238) with a His-tag at the C-terminus was purchased from AcroBiosystems (PD1-H5229). Recombinant human PD-1 protein (25-167) with Fc tag at the C-terminus was also purchased from AcroBiosystems (PD1-H5257). PD-L1 and PD-1 proteins were diluted in the assay buffer and 10 μL was added to the plate well. Plates were centrifuged and proteins were preincubated with inhibitors for 40 minutes. The incubation was followed by the addition of 10 μL of HTRF detection buffer supplemented with Europium cryptate-labeled anti-human IgG (PerkinElmer-AD0212) specific for Fc and anti-His antibody conjugated to SureLight®-Allophycocyanin (APC, PerkinElmer-AD0059H). After centrifugation, the plate was incubated at 25° C. for 60 min. before reading on a PHERAstar FS plate reader (665 nm/620 nm ratio). Final concentrations in the assay were—3 nM PD1, 10 nM PD-L1, 1 nM europium anti-human IgG and 20 nM anti-His-Allophycocyanin. IC50 determination was performed by fitting the curve of percent control activity versus the log of the inhibitor concentration using the GraphPad Prism 5.0 software.
In general terms: TR-FRET usually uses a lanthanide donor and a delayed reading to cut background.
By IC50 is commonly meant the midpoint of a concentration-inhibition curve. `Cc1c(-c2nc3cc(CN4CC[C@@H](C(=O)O)C4)cc(C#N)c3o2)cccc1-c1cccc(-c2nc3c(o2)CN(C(=O)CN2CC[C@@H](O)C2)C3)c1Cl` [Example 256, (R)-1-((2-(2′-chloro-3′-(5-(2-((R)-3-hydroxypyrrolidin-1-yl)acetyl)-5,6-dihydro-4H-pyrrolo[3,4-d]oxazol-2-yl)-2-methyl-[1,1′-biphenyl]-3-yl)-7-cyanobenzo[d]oxazol-5-yl)methyl)pyrrolidine-3-carboxylic acid]: the IC50 is at most 10 nM. As for `Cc1c(-c2nc3cc(CN4CC[C@@H](C(=O)O)C4)cc(C#N)c3o2)cccc1-c1cccc(-c2nc3c(s2)CN(C(C)CO)CC3)c1C` (stereo partly drawn) [Example 66, (3R)-1-((7-cyano-2-(3′-(5-(1-hydroxypropan-2-yl)-4,5,6,7-tetrahydrothiazolo[5,4-c]pyridin-2-yl)-2,2′-dimethyl-[1,1′-biphenyl]-3-yl)benzo[d]oxazol-5-yl)methyl)pyrrolidine-3-carboxylic acid], the figure is at most 10 nM; as for `Cc1c(-c2nc3cc(CN4CC[C@H](C(=O)O)C4)cc(C#N)c3o2)cccc1-c1cccc(NC(=O)c2nc3c(n2C)CN(C)C3)c1Cl` [Example 94, (S)-1-((2-(2′-chloro-3′-(1,5-dimethyl-1,4,5,6-tetrahydropyrrolo[3,4-d]imidazole-2-carboxamido)-2-methylbiphenyl-3-yl)-7-cyanobenzo[d]oxazol-5-yl)methyl)pyrrolidine-3-carboxylic acid], at most 10 nM. Regarding `Cc1c(-c2nc3cc(CN4CC[C@H](O)C4)cc(Cl)c3o2)cccc1-c1cccc(-c2nc3cc(CN4CC[C@H](C(=O)O)C4)cc(Cl)c3o2)c1C` [Example 10, (S)-1-((7-chloro-2-(3′-(7-chloro-5-(((S)-3-hydroxypyrrolidin-1-yl)methyl)benzo[d]oxazol-2-yl)-2,2′-dimethylbiphenyl-3-yl)benzo[d]oxazol-5-yl)methyl)pyrrolidine-3-carboxylic acid], the IC50 is at most 10 nM.

Regarding `Cc1c(-c2nc3c(o2)CN(C(=O)CN(C)C)C3)cccc1-c1cccc(-c2nc3cc(CN4CCC(C(=O)O)CC4)cc(C#N)c3o2)c1C` [Example 246, 1-((7-cyano-2-(3′-(5-(dimethylglycyl)-5,6-dihydro-4H-pyrrolo[3,4-d]oxazol-2-yl)-2,2′-dimethyl-[1,1′-biphenyl]-3-yl)benzo[d]oxazol-5-yl)methyl)piperidine-4-carboxylic acid], the IC50 was at most 10 nM. The result for `Cc1c(-c2nc3cc(CN4CC[C@@](C)(C(=O)O)C4)cc(C#N)c3o2)cccc1-c1cccc(-c2nc3c(s2)CN(C(=O)CN2CC[C@H](O)C2)C3)c1C` [Example 221, (R)-1-((7-cyano-2-(3′-(5-(2-((S)-3-hydroxypyrrolidin-1-yl)acetyl)-5,6-dihydro-4H-pyrrolo[3,4-d]thiazol-2-yl)-2,2′-dimethylbiphenyl-3-yl)benzo[d]oxazol-5-yl)methyl)-3-methylpyrrolidine-3-carboxylic acid] reads at most 10 nM; that for `Cc1c(-c2nc3cc(CN4CC[C@@H](O)C4)cc(C#N)c3o2)cccc1-c1cccc(NC(=O)c2nc3c(n2C)CCN(CC24CCC(C(=O)O)(CC2)C4)C3)c1Cl` [Example 267, (R)-4-((2-(2-chloro-3′-(7-cyano-5-((3-hydroxypyrrolidin-1-yl)methyl)benzo[d]oxazol-2-yl)-2′-methylbiphenyl-3-ylcarbamoyl)-1-methyl-6,7-dihydro-1H-imidazo[4,5-c]pyridin-5(4H)-yl)methyl)bicyclo[2.2.1]heptane-1-carboxylic acid], at most 10 nM. The result for `CCN(C)CC(=O)N1Cc2nc(-c3cccc(-c4cccc(-c5nc6cc(CN7CC[C@@H](C(=O)O)C7)cc(C#N)c6o5)c4C)c3C)oc2C1` [Example 241, (R)-1-((7-cyano-2-(3′-(5-(N-ethyl-N-methylglycyl)-5,6-dihydro-4H-pyrrolo[3,4-d]oxazol-2-yl)-2,2′-dimethyl-[1,1′-biphenyl]-3-yl)benzo[d]oxazol-5-yl)methyl)pyrrolidine-3-carboxylic acid] reads at most 10 nM. On to `Cc1c(-c2nc3c(o2)CN(C(=O)CN(C)C)C3)cccc1-c1cccc(-c2nc3cc(CN4CC(C(=O)O)C4)cc(C#N)c3o2)c1C` [Example 123, 1-((7-cyano-2-(3′-(5-(dimethylglycyl)-5,6-dihydro-4H-pyrrolo[3,4-d]oxazol-2-yl)-2,2′-dimethyl-[1,1′-biphenyl]-3-yl)benzo[d]oxazol-5-yl)methyl)azetidine-3-carboxylic acid], for which the IC50 was at most 10 nM. As to `Cc1c(Nc2nccc3cc(CN4CCC(C(=O)O)CC4)cnc23)cccc1-c1cccc(-c2nc3cc(CN4CC[C@@H](O)C4)cc(C#N)c3o2)c1C` [Example 214, (R)-1-((8-(3′-(7-cyano-5-((3-hydroxypyrrolidin-1-yl)methyl)benzo[d]oxazol-2-yl)-2,2′-dimethylbiphenyl-3-ylamino)-1,7-naphthyridin-3-yl)methyl)piperidine-4-carboxylic acid], the IC50 was at most 10 nM.

`Cc1c(-c2nc3cc(CN4CC5(C(=O)O)CC4C5)cc(C#N)c3o2)cccc1-c1cccc(-c2nc3c(s2)CN(C(=O)CN(C)C)C3)c1C` [Example 235, 2-((7-cyano-2-(3′-(5-(2-(dimethylamino)acetyl)-5,6-dihydro-4H-pyrrolo[3,4-d]thiazol-2-yl)-2,2′-dimethylbiphenyl-3-yl)benzo[d]oxazol-5-yl)methyl)-2-azabicyclo[2.1.1]hexane-4-carboxylic acid]: the IC50 is at most 10 nM. The result for `Cc1c(-c2nc3cc(CN4CC[C@@H](C(=O)O)C4)cc(Cl)c3o2)cccc1-c1cccc(-c2nc3c(s2)CN(CCO)CC3)c1C` [Example 61, (R)-1-((7-chloro-2-(3′-(5-(2-hydroxyethyl)-4,5,6,7-tetrahydrothiazolo[5,4-c]pyridin-2-yl)-2,2′-dimethyl-[1,1′-biphenyl]-3-yl)benzo[d]oxazol-5-yl)methyl)pyrrolidine-3-carboxylic acid] reads at most 10 nM; that for `Cc1c(-c2nc3cc(CN4CC[C@@](C)(C(=O)O)C4)cc(C#N)c3o2)cccc1-c1cccc(-c2nc3c(s2)CN(C(=O)CN(C)C(C)C)C3)c1C` [Example 217, (R)-1-((7-cyano-2-(3′-(5-(2-(isopropyl(methyl)amino)acetyl)-5,6-dihydro-4H-pyrrolo[3,4-d]thiazol-2-yl)-2,2′-dimethylbiphenyl-3-yl)benzo[d]oxazol-5-yl)methyl)-3-methylpyrrolidine-3-carboxylic acid], at most 10 nM; that for `Cc1c(-c2nc3cc(CN4CC[C@@H](C(=O)O)C4)cc(C#N)c3o2)cccc1-c1cccc(-c2nc3c(s2)CN(C(=O)CCN(C)C)C3)c1C` [Example 106, (R)-1-((7-cyano-2-(3′-(5-(3-(dimethylamino)propanoyl)-5,6-dihydro-4H-pyrrolo[3,4-d]thiazol-2-yl)-2,2′-dimethylbiphenyl-3-yl)benzo[d]oxazol-5-yl)methyl)pyrrolidine-3-carboxylic acid], at most 10 nM. The result for `Cc1c(Nc2nccc3cc(CN4CC[C@@H](O)C4)cnc23)cccc1-c1cccc(-c2nc3cc(CN[C@@H]4CC[C@H](C(=O)O)C4)cc(C#N)c3o2)c1C` [Example 170, (1S,3R)-3-((7-cyano-2-(3′-(3-(((R)-3-hydroxypyrrolidin-1-yl)methyl)-1,7-naphthyridin-8-ylamino)-2,2′-dimethylbiphenyl-3-yl)benzo[d]oxazol-5-yl)methylamino)cyclopentanecarboxylic acid] reads at most 10 nM; that for `Cc1c(-c2nc3cc(CN4CC[C@@H](C(=O)O)C4)cc(C#N)c3o2)cccc1-c1cccc(Nc2nccc3nccnc23)c1Cl` [Example 14, (R)-1-((2-(2′-chloro-2-methyl-3′-(pyrido[4,3-b]pyrazin-5-ylamino)biphenyl-3-yl)-7-cyanobenzo[d]oxazol-5-yl)methyl)pyrrolidine-3-carboxylic acid], at most 10 nM; that for `Cc1c(-c2nc3c(o2)CN(C(=O)CN2CCC(O)CC2)C3)cccc1-c1cccc(-c2nc3cc(CN4CC[C@@](C)(C(=O)O)C4)cc(C#N)c3o2)c1C` [Example 249, (R)-1-((7-cyano-2-(3′-(5-(2-(4-hydroxypiperidin-1-yl)acetyl)-5,6-dihydro-4H-pyrrolo[3,4-d]oxazol-2-yl)-2,2′-dimethyl-[1,1′-biphenyl]-3-yl)benzo[d]oxazol-5-yl)methyl)-3-methylpyrrolidine-3-carboxylic acid], at most 10 nM. As for `Cc1c(-c2nc3cc(CN4CC[C@@H](C(=O)O)C4)cc(C#N)c3o2)cccc1-c1cccc(-c2nc3c(s2)CN(C(=O)CN2CC[C@H](O)C2)C3)c1C` [Example 112, (R)-1-((7-cyano-2-(3′-(5-(2-((S)-3-hydroxypyrrolidin-1-yl)acetyl)-5,6-dihydro-4H-pyrrolo[3,4-d]thiazol-2-yl)-2,2′-dimethylbiphenyl-3-yl)benzo[d]oxazol-5-yl)methyl)pyrrolidine-3-carboxylic acid], the figure is at most 10 nM.

Source of the values: patent US10308644B2, “Heterocyclic compounds as immunomodulators” (Incyte Corporation, priority 2016, dated 2019).
